The source of these data is ChEMBL document CHEMBL1201862, “PubChem BioAssay data set” (2004).

Experiment in all cases: NCI-60 cell line screen, 48 h
Assay [1] deals with A549.
For assay [2], the system named is EKVX.
In assay [3] the test system is IGROV-1.
Assay [4] relates to K562.
In assay [5] the test system is KM12.
Assay [6] has as its system LOX IMVI.
In assay [7] the test system is NCI-H226.
In assay [8] the test system is NCI-H23.
Assay [9] deals with NCI-H522.
Assay [10] concerns OVCAR-8.
The test system of assay [11] is SF-268.
The test system of assay [12] is SF-295.
For assay [13], the system named is SK-MEL-28.
Assay [14] relates to SK-MEL-2.
For assay [15], the system named is SK-MEL-5.
Assay [16] deals with SK-OV-3.
The test system of assay [17] is SNB-19.
Assay [18] deals with SW-620.
In assay [19] the test system is U-251.
The subject of assay [20] is UACC-62.

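A five-concentration, 48-hour dose response in 96-well plates underlies each endpoint, interpolated linearly between surrounding concentrations. Abbreviation: GI50, concentration required for 50% inhibition of growth.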 Active and inactive are the calls of the source. Rule as the data show it: active = GI50 up to about 1.1 µM and inactive = higher.

For `ClCc1ccc2ccc3ccc(CCl)nc3c2n1`, the GI50 in assay [1] was 4.76 µM (inactive); in [2], 15.6 µM (inactive); in assay [3], 1.7 µM (inactive); in assay [4], 3.18 µM (inactive); in [5], 0.9 µM (active); in [6], 1.56 µM (inactive). Further, the GI50 in [7] is 2.28 µM (inactive); in assay [8], 2.9 µM (inactive); in assay [9] it was 1.76 µM (inactive); in [10], 3.36 µM (inactive); in assay [11] it was 4.19 µM (inactive); in [12] it was 2.31 µM (inactive). For the same compound, the GI50 was 1.83 µM (inactive) in assay [13]; 1.77 µM (inactive) in [14]; 1.4 µM (inactive) in assay [15]; 8.89 µM (inactive) in [16]; 11.9 µM (inactive) in assay [17]; 2.5 µM (inactive) in assay [18]. The figures for the GI50 in [19] and in assay [20] were 1.93 µM (inactive) and 1.34 µM (inactive), respectively.
For `C=C1C(=O)OC2CC1CCC1(C)OC1CCC(C)=CCCC2(C)O` (stereo not given), the GI50 in assay [1] was 8.36 µM (inactive); in [2] it was 6.87 µM (inactive); in assay [3] it was 7.18 µM (inactive); in assay [4] it was 1.83 µM (inactive); in assay [5], 5.52 µM (inactive); in [6], 2.24 µM (inactive). The GI50 in assay [7] is 3.61 µM (inactive); in assay [8], 1.79 µM (inactive); in assay [9], 1.06 µM (active); in [10] it was 2.33 µM (inactive); in [11], 5.36 µM (inactive); in assay [12], 16.8 µM (inactive). The GI50 in assay [13] is 4.06 µM (inactive); in assay [14] it was 6.12 µM (inactive); in assay [15], 4 µM (inactive); in assay [16] it was 16.7 µM (inactive); in [17], 14.1 µM (inactive); in assay [18], 1.12 µM (inactive). For the same compound, the GI50 in assay [19] is 11.8 µM (inactive); in assay [20], 3.4 µM (inactive).
As for `CN(C)C(=O)NCCN1CCCCCc2ccccc21`, the GI50 in [1], in assay [2], in assay [3], in assay [4], in [5] and in assay [6] was > 100 µM (inactive) each time. The GI50 in assay [7] was 49.7 µM (inactive); in assay [8] it was 76.4 µM (inactive); in [9] it was > 100 µM (inactive); in [10], > 100 µM (inactive); in assay [11], > 100 µM (inactive); in [12], > 100 µM (inactive). Also, the GI50 in assay [13] is > 100 µM (inactive); in assay [14], 89.7 µM (inactive); in assay [15] it was 24.3 µM (inactive); in assay [16], > 100 µM (inactive); in assay [17], > 100 µM (inactive); in assay [18], > 100 µM (inactive). Further, the GI50 in assay [19] and in assay [20] was > 100 µM (inactive) in each case.
Take `COc1cc2c(ccc3c4cc(OC)c(OC)cc4c[n+](C)c23)cc1O` [FAGARONINE]: the GI50 was 19.9 µM (inactive) in [1]; 39.6 µM (inactive) in assay [2]; 23.2 µM (inactive) in [3]; 4.26 µM (inactive) in assay [4]; > 75 µM (inactive) in assay [5]; > 33 µM (inactive) in assay [6]. Besides, the GI50 in assay [7] is 1.47 µM (inactive); in assay [8], 7.76 µM (inactive); in assay [9], 0.131 µM (active); in [10], 1.69 µM (inactive); in assay [11] it was 0.0588 µM (active); in assay [12] it was 7.93 µM (inactive). Further, the GI50 in [13] was 52.7 µM (inactive); in assay [14] it was 41.4 µM (inactive); in assay [15], 4.09 µM (inactive); in [16], 21.6 µM (inactive); in assay [17], 1.15 µM (inactive); in assay [18], 12.7 µM (inactive). For the same compound, the results for the GI50 in [19] and in assay [20] were 0.264 µM (active) and 1.23 µM (inactive), respectively.
